Results as given in ChEMBL document CHEMBL1201862, “PubChem BioAssay data set” (2004).
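Growth conditions: 96-well plates. Treatment: test compound, 48 hours, 5 concentrations. Analysis: linear interpolation between bracketing concentrations; unreached endpoints set to highest concentration. The concentration for 50% growth inhibition is given as GI50.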 The source made the active and inactive calls. Rule as the data show it: active = GI50 up to about 1.1 µM and inactive = higher.

Legend:
Assay in all cases: DTP human tumour cell line panel, 48 h
[1] = system: SNB-78
[2] = system: KM-20L2
[3] = system: SK-MEL-28
[4] = system: SF-295
[5] = system: SK-MEL-2
[6] = system: OVCAR-5
[7] = system: RXF 393
[8] = system: OVCAR-8
[9] = system: OVCAR-3
[10] = system: IGROV-1
[11] = system: HOP-18
[12] = system: HOP-62
[13] = system: SR
[14] = system: Malme-3M
[15] = system: NCI-H522
[16] = system: TK-10
[17] = system: ACHN
[18] = system: LXFL 529
[19] = system: DMS-273
[20] = system: M19-MEL

Measured: GI50

O=C(c1ccccc1)[C@H]1Nc2ccc(Cl)cc2[C@H]2OCCC[C@@H]12
inactive: [1] 24.1 µM | [2] 16.7 µM | [3] 18.2 µM | [4] 17 µM | [5] 25.4 µM | [6] 15.9 µM | [7] 17.3 µM | [8] 20.9 µM | [9] 14.9 µM | [10] 39 µM | [11] 18.5 µM | [12] 18 µM | [13] 26.1 µM | [14] 25.6 µM | [15] 14.1 µM | [16] 28.5 µM | [17] 31.3 µM | [18] 12.1 µM | [19] 19.3 µM | [20] 23 µM
